Columns and labels:
Assay type in all cases: cell-based, human
[1] = test system: ABCC4; assay: Western blot of ABCC4 in MDA-MB-231 cells after ACSL4 inhibition; conditions: Triacsin C 1 uM or rosiglitazone 100 uM, 48 h
Text: (§1) A) MDA-MB-231 cells were transfected with the pSUPER.retro plasmid containing a shRNA targeted to ACSL4 (shRNA-ACSL4) or an empty plasmid (mock) as previously described ((Maloberti P. M. et al., 2010, supra).
(§2) One month post selection, whole cell extracts were obtained and analyzed by Western blot as previously described using the indicated antibodies. […] Forty-eight hours post-treatment, whole cell extracts were obtained and analyzed by Western blot as previously described using the indicated antibodies. Representative blots (upper panels) and integrated optical density of protein levels (lower panels) quantified and normalized with the corresponding 1-tubulin signal are shown.
(§3) J Biol Chem 2001; 276(27):24667-24673).
(§4) MDA-MB-231 cells were seeded the day before and grown up to 80% confluence. […] The empty vector was used as control. Transfection efficiency was estimated by counting fluorescent cells transfected with the pRc/CMVi plasmid containing the enhanced form of green fluorescent protein [Maloberti et al.; 2010].

[2] = test system: ABCC8; assay: Western blot of ABCC8 in MDA-MB-231 cells after ACSL4 inhibition; conditions: Triacsin C 1 uM or rosiglitazone 100 uM, 48 h
Text: as §1, §2, §3, §4

[3] = test system: ABCG2; assay: Western blot of ABCG2 in MDA-MB-231 cells after ACSL4 inhibition; conditions: Triacsin C 1 uM or rosiglitazone 100 uM, 48 h
Text: as §1, §2, §3, §4

[4] = test system: MDA-MB-231 cells; assay: BrdU cell proliferation assay, MDA-MB-231 cells; conditions: for inhibition of MDA-MB-231 cell proliferation (BrdU): Triacsin C 0.01-0.10 M and/or doxorubicin 0.025 μM or paclitaxel 0.1 μM, 96 h; for dosage used in combination therapy relative to the minimum dose that produces a significant inhibition when administered alone: Triacsin C: in cell culture; for dosage used in combination therapy relative to the minimum dose that produces a significant inhibition when administered alone / amount used in combination relative to the maximum effective dose when applied alone (same inhibitory effect): combination therapy
Description: Subsequently, cell proliferation was measured by BrdU incorporation assay. Data arc presented as inhibition of cell proliferation compared to control cells. White bars indicate single inhibitor treatment while grey bars indicate combined inhibitor treatment.
MDA-MB-231 cells were plated as described in FIG. 3 and then incubated with Triacsin C ([…]) and/or A. doxorubicin (0.025 μM), B. paclitaxel (0.1 μM) for 96 h. Subsequently, cell proliferation was measured by BrdU incorporation assay. Data are presented as inhibition of cell proliferation compared to control cells. White bars indicate single inhibitor treatment while black bars indicate combined inhibitor treatment.
(§5) Cell proliferation assays were measured by the MTT and 5-bromo-2′-deoxyuridine (BrdU) incorporation as previously described (Maloberti P. M. et al., 2010).
(§6) MBA-MB-231 cells were plated at a density of 4000 cells/well in 96-well plates with 10% FBS-supplemented D-MEM medium and allowed to adhere overnight at 37° C. in a humidified, 5% CO2 atmosphere. The medium was then changed to serum-free medium. […] Subsequently, cell proliferation was measured by the bromo-deoxvuridine (BrdU) incorporation assay.
as §6, with “MDA-MB-231” for “MBA-MB-231”, “bromo-deoxyuridine” for “bromo-deoxvuridine”
(§7) MBA-MB-231 cells were plated at a density of 4000 cells/well in 96-well plates with 10% FBS-supplemented D-MEM medium and allowed to adhere overnight at 37° C. in a humidified, 5% CO2 atmosphere. The medium was then changed to serum-free medium. After 24 h, the cells were switched to 10% FBS-supplemented D-MEM medium and incubated with doxorubicin and/or Triacsin C for 96 h. Subsequently, cell proliferation was measured by the bromo-deoxyuridine (BrdU) incorporation assay.
as §7, with “MDA-MB-231 cells” for “MBA-MB-231 cells”, “C. m” for “C. in”, “24 h.” for “24 h,”, “with paclitaxel” for “with doxorubicin”, “the bromo-deoxvuridine” for “the bromo-deoxyuridine”

[5] = test system: MDA-MB-231 cells; assay: BrdU cell proliferation assay, MDA-MB-231 cells; conditions: rosiglitazone 20 μM and/or doxorubicin 0.025 μM or paclitaxel 0.5 μM; 96 h
[6] = test system: MCF-7 Tet-Off/ACSL4 cells; assay: BrdU cell proliferation assay, MCF-7 Tet-Off/ACSL4 cells
Description: (§8) MCF-7 Tet-Off empty vector and MCF-7 Tet-Off/ACSL4 cells were plated at a density of 4000 cells/well in 96-well plates with 10% FBS-supplemented D-MEM and allowed to adhere overnight at 37° C. in a humidified 5% CO2 atmosphere. The medium was then changed to serum-free medium. After 24 h, the cells were switched to 10% FBS-supplemented D-MEM with A. doxorubicin (0.025-0.100 μM) and B. paclitaxel (0.1-0.5 μM), and with doxycycline (0.025 μM) where indicated. After 48 h, cell proliferation was measured by BrdU incorporation assay. Data are presented as inhibition of cell proliferation compared to control cells.
as §5
Separate experiments were carried out for each one of the tested chemotherapeutic agents. Each chemotherapeutic agent was first tested alone at the concentrations used, and then in combination with doxycycline, for each of the cell groups: MCF-7 Tet-Off/ACSL4 cells, MCF-7 Tet-Off empty vector cells and doxycycline-treated MCF-7 Tet-Off/ACSL4 cells, the latter is used to specifically override ACSL4 expression.
as §7, with “MCF-7 Tet-Off empty vector and MCF-7 Tet-Off/ACSL4” for “MBA-MB-231”, “at varying (sub-therapeutically effective or non-effective per se) concentrations (0.025, 0.050, 0.100 μM)” for “and/or Triacsin C”
as §7, with “MCF-7 Tet-Off empty vector and MCF-7 Tet-Off/ACSL4” for “MBA-MB-231”, “paclitaxel at varying (sub-therapeutically effective or non-effective per se) concentrations (0.1, 0.2, 0.5 μM)” for “doxorubicin and/or Triacsin C”

[7] = test system: MCF-7 Tet-Off empty vector cells; assay: BrdU cell proliferation assay, MCF-7 Tet-Off empty vector cells; conditions: doxorubicin 0.025, 0.050, 0.100 μM or paclitaxel 0.1, 0.2, 0.5 μM, 96 h
Description: as §8, §5
Separate experiments were carried out for each one of the tested chemotherapeutic agents. […]
MCF-7 Tet-Off empty vector and MCF-7 Tet-Off/ACSL4 cells were plated at a density of 4000 cells/well in 96-well plates with 10% FBS-supplemented D-MEM medium and allowed to adhere overnight at 37° C. in a humidified, 5% CO2 atmosphere. […] Subsequently, cell proliferation was measured by the bromo-deoxyuridine (BrdU) incorporation assay. […]

[8] = MCF-7 Tet-Off/ACSL4 cells, doxorubicin 0.025, 0.050, 0.100 μM or paclitaxel 0.1, 0.2, 0.5 μM, 96 h
[9] = doxycycline-treated MCF-7 Tet-Off/ACSL4 cells, doxorubicin 0.025-0.100 μM or paclitaxel 0.1-0.5 μM

SMILES | ABCC4 protein levels [1] | ABCC8 protein levels [2] | ABCG2 protein levels [3] | inhibition of MDA-MB-231 cell proliferation (BrdU) [4] | dosage used in combination therapy relative to the minimum dose that produces a significant inhibition when administered alone [4] | inhibition of MDA-MB-231 cell proliferation (BrdU) [5] | inhibition of cell proliferation (BrdU) [6, 8] | inhibition of cell proliferation (BrdU) [6, 9] | inhibition of cell proliferation (BrdU) [7] | amount used in combination relative to the maximum effective dose when applied alone (same inhibitory effect) [4]
CCC/C=C/C/C=C/C=C/C=NNN=O [Triacsin C, N-(((2E,4E,7E)-undeca-2,4,7-trienylidene)amino)nitrous amide] | markedly decreased | markedly decreased | markedly decreased | very little effect | 5 times lower | – | – | – | – | –
COc1cccc2c1C(=O)c1c(O)c3c(c(O)c1C2=O)C[C@@](O)(C(=O)CO)C[C@@H]3O[C@H]1C[C@H](N)[C@H](O)[C@H](C)O1 [doxorubicin] | – | – | – | very little effect | 2.6 times lower | very little effect | very little or no effect | significantly increased inhibition of cell proliferation | inhibited proliferation | 12 times lower
CC(=O)O[C@H]1C(=O)[C@@]2(C)[C@H]([C@H](OC(=O)c3ccccc3)[C@]3(O)C[C@H](OC(=O)[C@H](O)[C@@H](NC(=O)c4ccccc4)c4ccccc4)C(C)=C1C3(C)C)[C@]1(OC(C)=O)CO[C@@H]1C[C@@H]2O [paclitaxel] | – | – | – | very little effect | half | very little effect | little or no effect | significantly increased inhibition of cell proliferation | inhibited proliferation | 5 times lower

From patent publication US20190269629A1, “COMPOSITIONS AND METHODS FOR INHIBITING GROWTH OF ACSL4-OVEREXPRESSING TUMORS” (CONSEJO NACIONAL DE INVESTIGACIONES CIENTÍFICAS Y TÉCNICAS …, priority 2016, published 2019)
